Consider 1 molecule from patent publication US12514859B2, “Pyrazole pyrimidine derivative and uses thereof” (Yissum Research Development Company of the Hebrew …, priority 2015, dated 2026).

Assay [1] concerns the target T1, IRAK1 (Homo sapiens, UniProt P51617).
T1 construct: endogenous in cells; host or cells: RKO cells, stimulated with TNFα
The assay can be described thus: IRAK1 inhibition in RKO cells treated with TNFα (Western blot). Format: cell-based. Particulars: RKO cells, Western blot; A51 1 μM, A14 2 μM, 16 hours, TNFα 100 units/ml. As for the experimental part:
(§1) Cells were harvested and analyzed by Western blot. Blots were incubated with the following antibodies: Phospho-IRAK1 (Thr209), (A1074, AssayBiothechnology; 1/1,000), Phospho-IKKα/β (Ser176/180) (16A6, Cell Signaling; 1/1,000), IKKα (2682, cell signaling; 1/1,1000), IKK β (2370, cell signaling; 1/1,1000), Phospho-c-Jun (Ser 63) (9261, cell signaling; 1/1,1000), p53 (DO-1&1801 hybridoma mix; dilution of 1:20 of supernatants from each), CKIα (C-19; 1/1,000; Santa Cruz Biotechnology) and phospho-histoneH2AX (S139; 1/1,000; Millipore). Secondary antibodies were HRP-linked goat anti-mouse, goat anti-rabbit and rabbit anti-goat antibodies (all 1/10,000; Jackson). Inhibition of Phospho-IRAK1, Phospho-IKKα/β and Phospho-c-Jun indicate IRAK1 inhibition. p53 stabilization and phosphorylation of H2AX (γH2AX), a marker of DNA damage, indicative of CKIα kinase inhibition. CKIα protein levels serves as a loading control.
as §1, with “IRAK1 Inhibition with compounds of the invention. RKO cells were incubated for 16 hours at 37° C. with the indicated concentrations of compounds of the invention A51 (1 μM) and A14 (2 μM) (FIG. 10). At the indicated time points, RKO were treated with TNFα (100 units/ml). Cells” for “Cells”, “IKKβ” for “IKK β”, “Blots were developed using ECL (GE Healthcare). […] Also shown is” for “Inhibition of Phospho-IRAK1, Phospho-IKKα/β and Phospho-c-Jun indicate IRAK1 inhibition.”

Assay [2] relates to AML mice (MLL-AF9). The assay can be described thus: MLL-AF9 acute myeloid leukemia (AML) mouse model. Format: in vivo. Particulars: oral gavage 20 mg/kg for 3 days then 10 mg/kg/day for 6 days. As to the method: Generation of a mouse model of acute myeloid leukemia (AML) (FIG. 6) and treatment with the CKIα inhibitor A14 (FIGS. 7, 8 and 9) or A51 (FIGS. 11 and 12). To generate the MLL-AF9 Acute myeloid leukemia (AML) model, bone marrow (BM) cells from 10 week old wild type mouse were extracted and enriched for cKit expressing cells (EasySep #18757) and incubated overnight in RPMI supplemented with 15% FCS L-Glutamine, Pen/Strep (Biological Industries, Israel) and stem cell factor (SCF), IL-3, IL-6 and TPO (Peprotech). The culture was infected with MSCV-MLL-AF9-IRES-GFP retrovirus construct containing supernatant medium for 4 hours, then growth medium was added and infected cells were incubated at 37° C. for additional 24 h. The culture was then injected I.V. into sub lethally irradiated (500 rad) mice. Upon detectable steady increase of GFP expressing cells in the mice peripheral blood (checked by FACS analysis) and rise in leukocyte numbers and immature cells (detected by Wright-Giemsa stained blood films), mice were sacrificed and their BM was transferred (1st BMT) to sublethally irradiated WT hosts. Upon emergence of AML disease mice were sacrificed and 50,000 BM cells were transplanted (2nd BMT) into WT host mice. GFP expressing cells were monitored in the peripheral blood and upon detecting >10% GFP^+ in PB (day 11 after BMT) mice were treated with A14 inhibitor (FIG. 7A). A14 was administered by oral gavage once a day at a dose of 20 mg/kg for 3 days followed by 10 mg/kg/day for 6 more days. The inhibitor was dissolved in 1% methyl cellulose with 0.1% Tween 80 and 0.2% Poly-ethylene glycol (Vehicle). Control mice were treated with the vehicle only. Mice were monitored daily for cachexia, lethargy, and ruff coats, and moribund mice were sacrificed. For a single dose experiment (FIG. 11A) A51 was administered by oral gavage at a single dose of 20 mg/kg and mice were sacrificed 16 hours following treatment.
Complete blood counts. Peripheral venous blood was obtained from the mouse facial vein using standard techniques and analyzed using the auto hematology analyzer BC-2800 (Mindray) per manufacturer's instructions.
Single-dose treatment effect of a CKI inhibitor in AML mice and PD-L1 expression. AML mice were prepared by inoculating MLL-AF9 oncogene-transduced bone marrow cells to C57/BL6 mice. MLL-AF9 fusion represents one of a poor prognosis human AML induced by chromosomal translocation. 30 days after leukemia inoculation, the recipient mice have high white blood cells (WBC) counts (×10 higher than a normal mouse), and harbor >95% leukemia blasts in the bone marrow and 50% of the peripheral WBC in these mice are AML blasts. These mice have splenomegaly and their bones are pale and fragile due to the acute leukemia (FIG. 12).

Assay [3] relates to bone marrow cells isolated from CML blast crisis mice. The assay can be described thus: Ex vivo inhibitor effects on bone marrow cells from CML blast crisis mice. Particulars: 8 hours. Format: cell-based, mouse. As to the method: Ex vivo inhibitor effects (FIGS. 2A and 13A-E). Freshly isolated BM from AML (13A-E) or CML blast crisis (2A) carrying mice were grown in RPMI supplemented with 15% FCS, L-Glutamine, Pen/Strep, Hepes, Sodium Pyruvate and non-essential amino acids (Biological Industries, Israel). CKI inhibitors (A14, A51, A75 or A86) were dissolved in DMSO and added to the tissue culture medium at the indicated concentrations; control cultures were treated with DMSO only. Several hours following treatment (as indicated in each experiment), cells were harvested and counted manually using a camera and standard inverted light microscope. Dead cells were excluded using Trypan Blue (Sigma). AnnexinV-PE (MBL), 7AAD (Tonbo) and PD-L1 (BioLegend) staining was evaluated by FACS according to manufacturer's recommendation.
FACS analysis. All assays were performed on BD's equipment: FACS caliber, FACS ARIA sorter or LSR II machines. For immunostaining, cells were suspended in a 1% BSA/PBS buffer with […]. Cells were then analyzed by using Annexin V PE Apootosis Detection Kit (eBioscience), 7-AAD (TONBO biosciences) and PE anti-mouse CD274 (B7-H1, PD-L1) antibody (clone 10F.9G2, BioLegend); Assays were performed according to the manufacturer's instruction. Monoclonal antibodies specific for CD16 and CD32 (Miltenyi Biotec) were used for blockade of Fc receptors before staining.

T1 sequence (P51617 whole entry): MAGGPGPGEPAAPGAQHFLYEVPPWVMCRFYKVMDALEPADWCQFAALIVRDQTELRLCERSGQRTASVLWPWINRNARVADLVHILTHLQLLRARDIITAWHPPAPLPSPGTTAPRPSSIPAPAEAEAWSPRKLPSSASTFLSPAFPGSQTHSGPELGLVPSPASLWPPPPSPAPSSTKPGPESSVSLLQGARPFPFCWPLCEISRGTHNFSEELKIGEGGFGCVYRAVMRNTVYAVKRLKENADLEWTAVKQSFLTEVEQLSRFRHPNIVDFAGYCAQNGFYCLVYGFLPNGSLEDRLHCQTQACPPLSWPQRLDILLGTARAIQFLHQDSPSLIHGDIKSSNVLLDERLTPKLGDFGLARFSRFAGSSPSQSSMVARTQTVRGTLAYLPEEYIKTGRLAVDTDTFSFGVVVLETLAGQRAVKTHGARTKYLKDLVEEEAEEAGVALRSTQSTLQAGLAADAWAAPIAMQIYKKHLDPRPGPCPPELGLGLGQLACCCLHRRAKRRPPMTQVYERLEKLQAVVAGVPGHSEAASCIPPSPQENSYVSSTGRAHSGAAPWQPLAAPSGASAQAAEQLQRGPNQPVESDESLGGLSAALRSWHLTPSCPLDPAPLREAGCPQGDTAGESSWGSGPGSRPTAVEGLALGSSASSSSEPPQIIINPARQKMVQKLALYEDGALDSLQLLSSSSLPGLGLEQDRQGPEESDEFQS

As to `Cn1ncc(-c2ccnc(N[C@H]3CC[C@H](N)CC3)n2)c1CC1CC1` [Compound A14, (1R, 4R)—N^1-(4-(5-(cyclopropylmethyl)-1-methyl-1H-pyrazol-4-yl)pyrimidin-2-yl)cyclohexane-1,4-diamine], in assay [1], the “IRAK1 activation and activation of the IRAK1 target IKK (in words)” value was “inhibition of IRAK1 activation”. Also, the “progression of AML, GFP+ leukocytes in peripheral blood (in words)” value in assay [2] is “inhibitory effect”. In assay [3] (dose dependent), the “apoptosis of bone marrow cells (Annexin5+/7AAD−) (in words)” value is “induces apoptosis” and the “total death (7AAD+) cells (in words)” value is given as “increased percentage of total death (7AAD+) cells”. In addition, the “leukemic cell number (in words)” value in assay [3] (dose response) is reported as “dramatic reduction of the leukemic cell number”.
